Measurements published in patent US20230357189A1, “MODIFIED FLUOROQUINOLONES AND USES THEREOF” (Technion Research & Development Foundation Limited, priority 2021, published 2023).
Converted amounts (≈) assume the structure as drawn.

Experiments:
Escherichia coli 25922 = assay: Antibacterial activity, MIC by double-microdilution method; assay type: cell-based; conditions: Table 2; Escherichia coli 25922
Bacillus Subtilis = assay: as above; assay type: cell-based; conditions: Bacillus Subtilis; for Gram-positive MIC d: Table 2; for Gram-positive MIC, DTT 0 mM / Gram-positive MIC, DTT 2 mM / Gram-positive MIC, DTT 10 mM: Table 3
[1] = tested on: Staphylococcus Epidermidis; assay: as above; assay type: cell-based; conditions: Table 2
[2] = tested on: Escherichia coli R477-100; assay: as above; assay type: cell-based; conditions: for Gram-negative MIC a: Table 2, without DTT; for Gram-negative MIC a / Gram-negative MIC, DTT 10 mM / Gram-negative MIC, DTT 0 mM / Gram-negative MIC, DTT 2 mM: Escherichia coli R477-100; for Gram-negative MIC, DTT 0 mM / Gram-negative MIC, DTT 2 mM: Table 3; for improvement of MIC in the presence of DTT: 10 mM DTT vs without DTT, Gram-negative E. coli R477-100
[3] = tested on: supercoiled (+) pHOT-1 plasmid DNA; assay: DNA cleavage assay (gel electrophoresis); assay type: biochemical; conditions: for DNase activity (cleavage of supercoiled plasmid, form I to form II): absence of adjuvants, HEPES buffer (50 mM, pH 7.4), 5 hours
Description: Removal of Ligands Prior to Electrophoresis was performed when more than 100 μM of Cu(II)-ligand or Co(III) ligand (at any concentration) complexes were employed that is, for DNA cleavage assays that were performed in the absence of any adjuvants. An Amberlyst® 15 (Sigma Aldrich) ion-exchange resin was prepared according to the reported literature [Hettich et al. J. Am. Chem. Soc. 1997, 119 (24), 5638-5647] and stored at −20° C. Before use, 0.5 gram of the exchanger was mixed with 250 μL of water. After stopping the DNA-cleavage reaction by addition of EDTA (54 mM, 15 minutes incubation at 37° C.), 10 μL of the exchanger suspension was added, vortexed, and incubated at 37° C. for 15 minutes before centrifugation and electrophoresis.
DNA cleavage activity of the tested Complexes towards supercoiled (+) pHOT-1 plasmid DNA (TopoGEN) was monitored by gel electrophoresis. In a typical experiment, plasmid DNA (200 ng, […]) in HEPES buffer (50 mM, pH 7.4) was mixed with different concentrations of a tested metal complex in the presence or absence of ascorbic acid (0.32 mM). All stock solutions of buffers and of the metal complexes were prepared using HPLC grade water (ChromAR®). Molecular biology reagent grade water (Sigma) was added up to a total reaction volume of 30 μL before incubation for a given time. For the ascorbic acid assays, the reaction was quenched immediately after incubation with EDTA (54 mM). For analysis, 10 μL of loading buffer (40% sucrose, 100 mM Tris-HCl (pH 7.5), 1 mM EDTA, 0.5 mg·mL^−1 bromophenol blue) was added to the incubated solution and loaded onto an agarose (SeaKem LE) gel [1% in TAE×1 buffer (40 mM Tris, 20 mM acetic acid, 1 mM EDTA)]. Electrophoresis was carried out at 60 V for 2 hours. Gels were stained with 1 μg·mL^−1 ethidium bromide for 30 minutes and de-stained in TAE×1 buffer. DNA bands were visualized with medium-range ultraviolet light using Bio-Rad Gel Doc XR+ imaging system. The quantity of different DNA forms (I or II) was estimated using ImageJ software.
Chem. 2015, 2015 (28), 4722-4730; Kashiba-Iwatsuki et al. FEBS Lett. 1996, 389 (2), 149-15].
The copper complex of compound 2 (2-Cu(II)) was used as the positive control in these assays.

E. coli DNA gyrase = biological target: T1, E. coli DNA gyrase (Escherichia coli, UniProt P0AES4+P0AES6); assay: E. coli Gyrase-DNA supercoiling assay; assay type: biochemical; conditions: supercoiling of relaxed pHOT-1 plasmid in presence of ATP; 37° C., 60 minutes
T1 construct: purchased TopoGEN
Description: The DNA supercoiling reactions were based on the manufacturer protocol (TopoGEN). The amount of DNA gyrase used in each assay was optimized by testing various dilutions of the stock. The amount sufficient to supercoil 250 nanograms (ng) of the substrate in 1 hour at 37° C. was then used for testing the compounds (1.1 U as defined by manufacturer). Assays (30 μL) contained 250 nanograms of relaxed pHOT1 plasmid DNA in Tris-HCl buffer (35 mM), pH 7.5, containing KCl (24 mM), MgCl2 (4 mM), DTT (2 mM), Spermidine (1.8 mM), ATP (1 mM), 6.5% (w/v) glycerol and bovine serum albumin (0.1 mg/ml). Reactions were incubated at 37° C. for 60 minutes. Reaction mixtures were stopped by the addition of 30 μL of loading buffer (40% sucrose, 100 mM Tris·HCl (pH 7.5), 1 mM EDTA, 0.5 mg×mL^−1 bromophenol blue) and worked up using 30 μL of 24:1 chloroform/isoamyl alcohol mixture; the aqueous layer was then analyzed using electrophoresis.
Electrophoresis, gel staining, DNA visualization and DNA quantification were performed as described for the DNA cleavage assays.

| SMILES | DNase activity (cleavage of supercoiled plasmid, form I to form II) [3] | Gram-positive MIC, DTT 0 mM (Bacillus Subtilis) [µg/mL] | Gram-positive MIC, DTT 2 mM (Bacillus Subtilis) [µg/mL] | Gram-positive MIC, DTT 10 mM (Bacillus Subtilis) [µg/mL] | Gram-negative MIC, DTT 10 mM [2] [µg/mL] | Gram-negative MIC, DTT 0 mM [2] [µg/mL] | Gram-negative MIC, DTT 2 mM [2] [µg/mL] | MIC ([2]; E. coli R477-100, metal-free compound) [µg/mL] | Gram-negative MIC b (Escherichia coli 25922) [µg/mL] | Gram-positive MIC d (Bacillus Subtilis) [µg/mL] | Gram-positive MIC c [1] [µg/mL] | Gram-negative MIC a [2] [µg/mL] | IC50 (E. coli DNA gyrase) [nM] | improvement of MIC in the presence of DTT [2] | DNase activity at micromolar concentrations ([3]; FIG. 32: 0.2 μg DNA over 2 hours (Co(III)-cyclen, 4-Co(III)), 0.6 μg DNA over 10 hours (23-Co(III))) |
| --- | --- | --- | --- | --- | --- | --- | --- | --- | --- | --- | --- | --- | --- | --- | --- |
| O.O=C(O)c1cn(C2CC2)c2cc(N3CCN(CCCCCCN4CCNCCNCCNCC4)CC3)c(F)cc2c1=O.[Co+3].[OH-] [1-Co(III)] |  |  |  |  |  |  |  |  | 12 | 12 | 24 | 12 |  |  |  |
| O.O=C(O)c1cn(C2CC2)c2cc(N3CCN(Cc4ccc(CCCN5CCNCCNCCNCC5)cc4)CC3)c(F)cc2c1=O.[Cu+2] [6-Cu(II)] | only very limited activity |  |  |  |  |  |  |  | 3 | 6 | 3 | 6 | 90 ± 10 |  |  |
| O.O=C(O)c1cn(C2CC2)c2cc(N3CCN(CCCCCCCCN4CCNCCNCCNCC4)CC3)c(F)cc2c1=O.[Cu+2] [3-Cu(II)] | only very limited activity |  |  |  |  |  |  |  | 6 | 6 | 6 | 12 |  |  |  |
| [Cl][Cu][Cl] [CuCl2, reference compound] |  |  |  |  |  |  |  |  | >384 | >384 | >384 | >384 |  | no change whatsoever |  |
| O.O=C(O)c1cn(C2CC2)c2cc(N3CCN(CCCCCCCN4CCNCCNCCNCC4)CC3)c(F)cc2c1=O.[Co+3].[OH-] [2-Co(III)] |  |  |  |  |  |  |  |  | 6 | 12 to 24 | 24 | 12 |  |  |  |
| O=C(O)c1cn(C2CC2)c2cc(N3CCN(CCCCCCCCN4CCNCCNCCNCC4)CC3)c(F)cc2c1=O [Compound 3] |  |  |  |  |  |  |  |  | 12 | 6 | 6 | 24 to 48 |  |  |  |
| O.O=C(O)c1cn(C2CC2)c2cc(N3CCN(CCCCCCCCN4CCNCCNCCNCC4)CC3)c(F)cc2c1=O.[Co+3].[OH-] [3-Co(III)] |  |  |  |  |  |  |  |  | 6 | 12 | 12 to 24 | 12 |  |  |  |
| N=C(N)NCCN1CCNCCNCCN(CCCc2ccc(CN3CCN(c4cc5c(cc4F)c(=O)c(C(=O)O)cn5C4CC4)CC3)cc2)CC1 [Compound 21] |  | 12 | 12 | 6 | 6 | 12 | 6 |  | 12 | 6 | 6 | 12 |  |  |  |
| O.O=C(O)c1cn(C2CC2)c2cc(N3CCN(Cc4ccc(CN5CCNCCNCCNCC5)cc4)CC3)c(F)cc2c1=O.[Co+3].[OH-] [4-Co(III)] |  |  |  |  |  |  |  |  | 6 | 6 | 6 | 12 |  |  | strong DNA binding but no DNase activity |

More lines, main results first:

| DNase activity (cleavage of supercoiled plasmid, form I to form II) [3] | Gram-positive MIC, DTT 0 mM (Bacillus Subtilis) [µg/mL] | Gram-positive MIC, DTT 2 mM (Bacillus Subtilis) [µg/mL] | Gram-positive MIC, DTT 10 mM (Bacillus Subtilis) [µg/mL] | Gram-negative MIC, DTT 10 mM [2] [µg/mL] | Gram-negative MIC, DTT 0 mM [2] [µg/mL] | Gram-negative MIC, DTT 2 mM [2] [µg/mL] | MIC ([2]; E. coli R477-100, metal-free compound) [µg/mL] | SMILES | Gram-negative MIC b (Escherichia coli 25922) [µg/mL] | Gram-positive MIC d (Bacillus Subtilis) [µg/mL] | Gram-positive MIC c [1] [µg/mL] | Gram-negative MIC a [2] [µg/mL] | IC50 (E. coli DNA gyrase) [nM] | improvement of MIC in the presence of DTT [2] | DNase activity at micromolar concentrations ([3]; FIG. 32: 0.2 μg DNA over 2 hours (Co(III)-cyclen, 4-Co(III)), 0.6 μg DNA over 10 hours (23-Co(III))) |
| --- | --- | --- | --- | --- | --- | --- | --- | --- | --- | --- | --- | --- | --- | --- | --- |
|  | 6 | 6 | 6 | 12 | 12 | 6 |  | NCCN1CCNCCNCCN(CCCCc2ccc(CN3CCN(c4cc5c(cc4F)c(=O)c(C(=O)O)cn5C4CC4)CC3)cc2)CC1 [Compound 26] | 12 | 6 | 6 | 12 |  |  |  |
| significant DNase activity | 6 | 6 to 12 | 6 | 12 | 12 | 12 |  | N=C(N)NCCN1CCNCCNCCN(Cc2ccc(CN3CCN(c4cc5c(cc4F)c(=O)c(C(=O)O)cn5C4CC4)CC3)cc2)CC1 [Compound 19] | 12 | 6 | 6 | 12 |  |  |  |
| significant DNase activity | 6 | 6 | 3 | 12 | 24 | 12 | 24 (≈ 37 µM) | NCCN1CCNCCNCCN(Cc2ccc(CN3CCN(c4cc5c(cc4F)c(=O)c(C(=O)O)cn5C4CC4)CC3)cc2)CC1 [Compound 23] | 24 | 6 | 12 | 24 |  |  |  |
| significant hydrolytic DNase activity | 12 | 6 | 3 | 3 | 24 | 6 |  | NCCN1CCNCCNCCN(Cc2ccc(CN3CCN(c4cc5c(cc4F)c(=O)c(C(=O)[O-])cn5C4CC4)CC3)cc2)CC1.[Cu+2] [23-Cu(II)] | 24 | 12 | 12 | 24 |  | significant improvement in antibacterial activity |  |
|  | 12 | 6 to 12 | 12 | 24 | 24 | 12 |  | N=C(N)NCCN1CCNCCNCCN(CCc2ccc(CN3CCN(c4cc5c(cc4F)c(=O)c(C(=O)O)cn5C4CC4)CC3)cc2)CC1 [Compound 20] | 24 | 12 | 24 | 24 |  |  |  |
